Key:
[1] = system: human breast cancer MDA-MB-231 transplanted tumor; test: Inhibitory effect in human breast cancer MDA-MB-231 xenograft model in nude mice; format: in vivo; conditions: MDA-MB-231 in female BALB/c nude mice; 40 mg·kg^−1 IV Q4D×3; 3 weeks; n=5
Experimental: MDA-MB-231 cells were cultured in DMEM, which contained 10% fetal bovine serum FBS (GIBCO, USA). The cells were placed in a 37° C. incubator containing 5% CO2 to cultivate.
A subcutaneous tumor xenograft model in nude mice was established by cell inoculation method: tumor cells in logarithmic phase of growth were collected, counted and then resuspended in 1×PBS, and the concentration of the cell suspension was adjusted to 1×10^7/mL. 1 mL syringes (4 gauge needle) were used to inoculate the tumor cells to the right back of the nude mice subcutaneously, 1×10^6/0.1 mL/mice. […]
(§1) The experimental period lasted for 3 weeks, and the body weights and the tumor sizes of the animals were measured twice a week during the experiment. The clinical symptoms were observed and recorded daily. On the last day of the experiment, the animals were sacrificed, the body weights were weighed, and the tumors were excised, weighed and recorded by photographing.
(§2) The calculation formula of the tumor volume (TV) was: TV=a×b^2/2, wherein a and b represented the measured length and width of the tumor, respectively. The calculation formula of the relative tumor volume (RTV) was: RTV=Vt/V0, wherein V0 was the tumor volume measured at the time of grouping and first administration, and Vt was the tumor volume at the time of a measurement.

[2] = system: human gastric cancer NCI-N87 transplanted tumor; test: Inhibitory effect on in vivo tumor growth, human gastric cancer NCI-N87 cell strain transplanted tumor model in nude mice; conditions: 40 mg·kg^−1 (as active agent) IV Q4D × 3, n=5
Experimental: NCI-N87 cells in logarithmic phase of growth were collected. […] Cell suspension was aspirated with a 1 mL syringe, and injected subcutaneously to the anterior right armpit of the nude mice. Each animal was inoculated with 100 μL (5×10^6 cells/animal), and the NCI-N87 transplanted tumor model in nude mice was established. Animal status and the condition of tumor growth were observed regularly after inoculation, an electronic vernier caliper was used to measure the tumor diameters, the data was directly input to an Excel spreadsheet, and the tumor volumes were calculated. […] The tumor diameters were measured twice a week after the initiation of the experiment, the tumor volumes were calculated, and the body weights of the animals were weighed and recorded at the same time.
The calculation formula of the tumor volume (TV) was as follows: TV(mm^3)=l×w^2/2 wherein l represented the long diameter of a tumor (mm), and w represented the short diameter of a tumor (mm).
(§3) The first administration was initiated on the day of grouping, the experiment was ended after 21 days, and the volumes of administration were all 10 mL·kg^−1. […]
After the experiment was ended, the animals were euthanized (CO2) after the body weights were weighed and the tumor diameters were measured. The tumor tissues were excised and weighed, and the tumor weight inhibition rates were calculated. […]

[3] = system: orthotopic U87MG brain glioma; format: in vivo, human; conditions: orthotopic U87MG brain glioma in nude mice; 40 mg·kg^−1 (as active agent) IV Q4D × 3; n=5
Experimental: U87MG cells in logarithmic phase of growth were collected. […] The cells were charged into a 50 mL centrifuge tube after being pipetted with a pipettor to make them evenly dispersed, and the centrifuge tube was placed in an ice box. Cell suspension was aspirated with a 1 mL syringe, 1 μL of human brain glioma cell (U87MG cells) cultured in vitro was inoculated (1×10^5 cells/animal) using microinjection method via the guidance of a stereotactic apparatus for animals, the orthotopic U87MG brain glioma model was established, and animal status was observed periodically after inoculation.
The first administration was initiated on the day of grouping, the experiment was ended after 21 days, and the volumes of administration were all 10 mL·kg^−1. Group 1 was a solvent control group, and was given blank solvent by intravenous injection via tail once every 4 days for a total of 3 times (Q4D×3).
The first administration was initiated on the day of grouping, the experiment was ended after 21 days, and the volumes of administration were all 10 mL·kg^−1.
Groups with 10-hydroxycamptothecin as the active agent (Groups 14 to 18). The first administration was initiated on the day of grouping, the experiment was ended after 21 days, and the volumes of administration were all 10 mL·kg^−1.
Groups with rubitecan as the active agent (Groups 19 to 23). […]
The survival time of the animals were recorded.

[4] = system: human colon cancer HT-29 transplanted tumor; test: Inhibitory effect on in vivo tumor growth, human colon cancer HT-29 transplanted tumor model in nude mice; conditions: HT-29 in female BALB/c nude mice; 40 mg·kg^−1 (as content of active agent) IV Q4D×3; experiment ended after 21 days; n=5
Experimental: HT-29 cells in logarithmic phase of growth were collected. […] Cell suspension was aspirated with a 1 mL syringe, and injected subcutaneously to the anterior right armpit of nude mice. Each animal was inoculated with 100 μL (6×10^6 cells/animal), and the HT-29 transplated tumor model in nude mice was established. Animal status and the condition of tumor growth were observed regularly after inoculation, an electronic vernier caliper was used to measure the tumor diameters, the data was directly input to an Excel spreadsheet, and the tumor volumes were calculated. […] The tumor diameters were measured twice a week after the initiation of the experiment, the tumor volumes were calculated, and the body weights of the animals were weighed and recorded at the same time.
The calculation formula of the tumor volume (TV) was as follows: TV(mm^3)=l×w^2/2
as §3
On the last day of the experiment, the animals were euthanized (CO2) after the body weights were weighed and the tumor diameters were measured. The tumor tissues were excised, weighed and photographed (respectively photographed according to the following combinations), and the tumor weight inhibition rates were calculated. […]

[5] = system: human pancreatic cancer MIA Paca-2 transplanted tumor; test: Inhibitory effect in human pancreatic cancer MIA Paca-2 xenograft model in nude mice; format: in vivo; conditions: MIA Paca-2 in female BALB/c-nu/nu nude mice; 40 mg·kg^−1 IV Q4D×3; 3 weeks; n=5
Experimental: The cells were placed in a 37° C. incubator containing 5% CO2 to cultivate.
A subcutaneous tumor xenograft model in nude mice was established by cell inoculation method: tumor cells in logarithmic phase of growth were collected, counted and then resuspended in 1×PBS, and the concentration of the cell suspension was adjusted to 3×10^7/mL. 1 mL syringes (4 gauge needle) were used to inoculate the tumor cells to the right back of the nude mice subcutaneously, 3×10^6/0.1 mL/mice. […]
as §1, §2

Question: Which results are given for `CCc1c2c(nc3ccc(OC(=O)N4CCC(N5CCCCC5)CC4)cc13)-c1cc3c(c(=O)n1C2)COC(=O)[C@]3(O)CC` [irinotecan]?
Answer: Relative tumor proliferation rate (% T/C) [1]: 44.8%^; Average relative tumor proliferation rate (% T/C) [2]: 63.2%; Median survival time [3]: 27 days; Relative tumor proliferation rate (% T/C) [4]: 69%; Relative tumor proliferation rate (% T/C) [5]: 59.4%

— US10869863B2, “Multi-arm polymeric targeting anti-cancer conjugate” (priority 2016, dated 2020)
